Measurements taken from ChEMBL document CHEMBL1201862, “PubChem BioAssay data set” (2004).
Activity calls are given as the source filed them.

Assays:
[1] = target: T1, RNA-binding protein pos-1 (Caenorhabditis elegans, UniProt G5EF15); experiment: inhibitors of POS-1/mex-3 RNA binding, dose response, biochemical, fluorescence polarization (AID 1964);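 further: purified POS-1 fused to maltose binding protein made in E. coli; potency of compounds blocking POS-1 binding to fluorescent RNA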
T1 sequence (G5EF15 whole entry): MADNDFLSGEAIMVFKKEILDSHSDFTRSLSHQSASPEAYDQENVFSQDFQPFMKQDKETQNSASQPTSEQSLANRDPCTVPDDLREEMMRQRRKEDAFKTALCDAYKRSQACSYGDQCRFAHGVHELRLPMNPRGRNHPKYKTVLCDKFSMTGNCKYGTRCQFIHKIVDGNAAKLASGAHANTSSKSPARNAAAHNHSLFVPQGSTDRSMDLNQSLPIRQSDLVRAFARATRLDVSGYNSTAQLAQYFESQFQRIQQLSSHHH

[2] = target: Glucose-6-phosphate 1-dehydrogenase (Homo sapiens, UniProt P11413); experiment: human G6PD enzyme inhibitors, dose response, selectivity assay for P. falciparum G6PD inhibitor project, biochemical, fluorescence (AID 504792); type: functional
INS1 = experiment: beta cell apoptosis inhibitors, cytokine rescue, dose response, luminescence, retest (AID 449756); type: functional, cell-based; conditions: Rattus norvegicus, INS1;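 further: cell death triggered by IL-1 beta plus TNF-alpha plus IFN-gamma mixture; protective hits raise ATP signal compared with cytokine alone wells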
[3] = target: T2, Zinc finger protein mex-5 (Caenorhabditis elegans, UniProt Q9XUB2); experiment: MEX-5/TCR-2 RNA interaction inhibitors, dose response, biochemical, C. elegans, fluorescence polarization (AID 1960)
T2 sequence (Q9XUB2 whole entry): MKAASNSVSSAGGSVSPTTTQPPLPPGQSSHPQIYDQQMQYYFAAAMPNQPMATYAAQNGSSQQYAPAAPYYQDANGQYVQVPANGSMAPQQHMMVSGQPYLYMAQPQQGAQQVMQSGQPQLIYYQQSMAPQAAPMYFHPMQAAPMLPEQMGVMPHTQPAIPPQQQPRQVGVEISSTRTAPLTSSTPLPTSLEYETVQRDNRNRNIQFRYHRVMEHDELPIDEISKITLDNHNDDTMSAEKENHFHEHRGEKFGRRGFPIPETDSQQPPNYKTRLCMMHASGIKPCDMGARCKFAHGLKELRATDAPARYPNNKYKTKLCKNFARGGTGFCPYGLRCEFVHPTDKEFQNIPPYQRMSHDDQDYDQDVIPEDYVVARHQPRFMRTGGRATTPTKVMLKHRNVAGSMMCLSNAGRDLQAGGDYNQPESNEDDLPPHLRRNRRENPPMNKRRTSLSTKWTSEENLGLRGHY

[4] = target: T3, Lysine-specific demethylase 4C (Homo sapiens, UniProt Q9H3R0); experiment: GASC-1 (JMJD2C) histone demethylase inhibitors, dose response, biochemical, DELFIA europium, cherry-picked samples (AID 488835); type: functional
T3 sequence (Q9H3R0 whole entry): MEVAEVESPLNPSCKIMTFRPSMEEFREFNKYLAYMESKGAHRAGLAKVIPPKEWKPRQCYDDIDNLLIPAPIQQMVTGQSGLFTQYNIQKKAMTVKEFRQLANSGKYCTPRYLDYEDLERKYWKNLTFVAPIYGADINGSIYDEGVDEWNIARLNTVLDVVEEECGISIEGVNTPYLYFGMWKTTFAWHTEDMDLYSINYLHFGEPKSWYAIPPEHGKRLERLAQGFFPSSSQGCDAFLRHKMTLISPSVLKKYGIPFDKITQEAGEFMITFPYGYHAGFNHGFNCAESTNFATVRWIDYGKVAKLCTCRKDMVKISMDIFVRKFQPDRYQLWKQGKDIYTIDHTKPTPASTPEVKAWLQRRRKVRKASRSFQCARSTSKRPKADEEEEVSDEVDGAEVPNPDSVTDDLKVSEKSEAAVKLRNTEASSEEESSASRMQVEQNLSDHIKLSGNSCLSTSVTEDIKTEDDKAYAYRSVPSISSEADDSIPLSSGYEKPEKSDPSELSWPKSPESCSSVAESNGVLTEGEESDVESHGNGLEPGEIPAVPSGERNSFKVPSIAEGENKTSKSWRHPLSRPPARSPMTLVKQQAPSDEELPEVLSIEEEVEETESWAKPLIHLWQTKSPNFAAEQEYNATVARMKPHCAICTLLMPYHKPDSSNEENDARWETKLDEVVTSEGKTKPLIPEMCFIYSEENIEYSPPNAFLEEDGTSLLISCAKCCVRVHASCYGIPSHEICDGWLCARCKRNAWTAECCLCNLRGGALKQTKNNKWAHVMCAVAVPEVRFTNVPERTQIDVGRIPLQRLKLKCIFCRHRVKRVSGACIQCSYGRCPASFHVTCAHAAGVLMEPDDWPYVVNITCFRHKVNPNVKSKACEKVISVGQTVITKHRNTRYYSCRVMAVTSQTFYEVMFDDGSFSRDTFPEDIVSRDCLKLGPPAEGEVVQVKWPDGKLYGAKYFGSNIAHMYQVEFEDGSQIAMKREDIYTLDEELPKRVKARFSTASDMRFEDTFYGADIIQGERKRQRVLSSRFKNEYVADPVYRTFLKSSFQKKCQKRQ

[5] = target: T4, Bifunctional protein GlmU (Mycobacterium tuberculosis, UniProt P9WMN3); experiment: Inhibitors of Mycobacterial Glucosamine-1-phosphate acetyl transferase (GlmU). Secondary screen.; design: species or system Mycobacterium tuberculosis H37Rv
T4 sequence (P9WMN3 whole entry): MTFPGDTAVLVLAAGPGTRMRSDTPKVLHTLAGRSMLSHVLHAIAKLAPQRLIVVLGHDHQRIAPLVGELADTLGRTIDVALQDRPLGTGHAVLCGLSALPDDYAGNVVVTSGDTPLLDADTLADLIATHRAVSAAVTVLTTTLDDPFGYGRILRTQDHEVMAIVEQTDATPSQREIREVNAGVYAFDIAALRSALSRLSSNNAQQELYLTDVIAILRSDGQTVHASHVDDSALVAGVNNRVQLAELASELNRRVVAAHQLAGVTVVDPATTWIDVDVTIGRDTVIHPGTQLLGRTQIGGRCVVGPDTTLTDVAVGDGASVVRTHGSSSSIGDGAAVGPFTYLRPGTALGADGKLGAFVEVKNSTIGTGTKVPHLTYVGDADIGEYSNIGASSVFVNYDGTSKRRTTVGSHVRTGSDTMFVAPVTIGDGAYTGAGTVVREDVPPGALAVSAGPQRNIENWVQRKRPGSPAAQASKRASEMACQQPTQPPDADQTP

Large T antigen = Large T antigen (Simian virus 40, UniProt P03070); type: functional, Betapolyomavirus macacae;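 further: Confirmatory-stage PubChem screen for compounds that inhibit SV40 T antigen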
[6] = target: T5, Rac GTPase-activating protein 1 (Homo sapiens, UniProt Q9H0H5); experiment: MgcRacGAP GTPase-activating activity inhibitors, confirmation, biochemical, ADP Hunter fluorescence, primary and confirmatory (AID 624330); type: functional
T5 sequence (Q9H0H5 whole entry): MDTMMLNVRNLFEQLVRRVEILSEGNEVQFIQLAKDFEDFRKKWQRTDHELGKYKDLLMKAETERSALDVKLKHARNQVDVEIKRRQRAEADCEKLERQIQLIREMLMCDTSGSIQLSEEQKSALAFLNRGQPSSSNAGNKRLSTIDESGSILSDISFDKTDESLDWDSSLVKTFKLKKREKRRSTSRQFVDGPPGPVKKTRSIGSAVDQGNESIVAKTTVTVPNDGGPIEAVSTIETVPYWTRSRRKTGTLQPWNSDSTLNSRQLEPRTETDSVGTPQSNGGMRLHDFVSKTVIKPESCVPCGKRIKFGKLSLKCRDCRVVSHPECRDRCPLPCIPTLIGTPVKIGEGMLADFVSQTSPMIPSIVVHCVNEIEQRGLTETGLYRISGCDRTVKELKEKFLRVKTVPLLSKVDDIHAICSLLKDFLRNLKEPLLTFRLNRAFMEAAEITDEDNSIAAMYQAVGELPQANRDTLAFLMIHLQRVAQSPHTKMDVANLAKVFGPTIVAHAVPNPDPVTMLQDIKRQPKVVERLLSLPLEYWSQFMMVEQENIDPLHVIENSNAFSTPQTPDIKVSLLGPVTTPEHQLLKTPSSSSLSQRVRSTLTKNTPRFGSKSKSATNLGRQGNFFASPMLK

[7] = target: T6, Mannose-6-phosphate isomerase (Homo sapiens, UniProt P34949); experiment: human PMI inhibitors, high substrate, primary screen, biochemical, fluorescence intensity, high mannose 6-phosphate (AID 1220)
T6 sequence (P34949 whole entry): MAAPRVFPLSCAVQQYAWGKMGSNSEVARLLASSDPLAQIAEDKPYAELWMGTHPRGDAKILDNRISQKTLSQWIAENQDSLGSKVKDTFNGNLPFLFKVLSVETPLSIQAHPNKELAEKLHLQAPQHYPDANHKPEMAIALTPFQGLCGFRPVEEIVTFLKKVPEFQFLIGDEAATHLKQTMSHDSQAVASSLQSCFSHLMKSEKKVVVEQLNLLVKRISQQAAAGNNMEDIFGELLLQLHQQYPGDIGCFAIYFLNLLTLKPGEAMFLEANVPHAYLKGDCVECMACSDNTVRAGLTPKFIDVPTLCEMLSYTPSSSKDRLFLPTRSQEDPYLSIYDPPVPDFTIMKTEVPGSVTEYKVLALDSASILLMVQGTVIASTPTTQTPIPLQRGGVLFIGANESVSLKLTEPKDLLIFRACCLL

Genome polyprotein = Genome polyprotein (dengue virus type 2, UniProt P29990); experiment: Dengue-2 NS5 methyltransferase inhibitors, primary screen, biochemical, confirmation dose response (AID 588689); type: functional
HEK293 [8] = experiment: cells; conditions: Homo sapiens
HEK293 [9] = experiment: cells; conditions: Homo sapiens; remark: listed apart in the source
[10] = target: T7, Voltage-gated N-type calcium channel alpha-1B subunit/Amyloid beta A4 precursor protein-binding family A member 1 (Homo sapiens, UniProt Q00975+Q02410); type: protein assay
[11] = target: DNA dC->dU-editing enzyme APOBEC-3A (Homo sapiens, UniProt P31941); experiment: APOBEC3A DNA deaminase inhibitors, dose response, biochemical (AID 504722); type: functional
[12] = inhibitors of intracellular T. cruzi replication, confirmation, NIH3T3 host cells, beta-gal luminescence (AID 2044); type: functional, cell-based;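 further: intracellular parasites grown in NIH/3T3 mouse fibroblasts as host cells; luminescent beta-galactosidase reporter signal from transgenic T. cruzi replicating inside host cells; inhibitors lower the luminescence signal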
Ion channel NompC = Ion channel NompC (Danio rerio, UniProt Q7T1G6); experiment: Dose response cell-based high-throughput screening assay for agonists of the transient receptor potential channel N1 (TRPN1). [Related pubchem assays (depositor defined):AID1424, AID1448]; type: functional
[13] = cytotoxicity toward NIH3T3 fibroblasts, dose response, counter-screen, cell-based, ATP luminescence, mouse fibroblasts (AID 2010); type: functional;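 further: cells exposed to compound for about 90 hours before reading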
[14] = target: DNA dC->dU-editing enzyme APOBEC-3G (Homo sapiens, UniProt Q9HC16); experiment: Dose Response confirmation of small molecule APOBEC3G DNA Deaminase Inhibitors via a fluorescence-based single-stranded DNA deaminase assay. [Related pubchem assays (depositor defined):AID493012, AID493028]; type: functional
Mucolipin-3 = target: T8, Mucolipin-3 (Homo sapiens, UniProt Q8TDD5); experiment: Fluorescence counterscreen assay for […] agonists: dose response cell-based high-throughput screening assay to identify agonists of the transient receptor potential channel ML3 (TRPML3). [Related pubchem assays: 1424, 1448 ]; type: functional
T8 sequence (Q8TDD5 whole entry): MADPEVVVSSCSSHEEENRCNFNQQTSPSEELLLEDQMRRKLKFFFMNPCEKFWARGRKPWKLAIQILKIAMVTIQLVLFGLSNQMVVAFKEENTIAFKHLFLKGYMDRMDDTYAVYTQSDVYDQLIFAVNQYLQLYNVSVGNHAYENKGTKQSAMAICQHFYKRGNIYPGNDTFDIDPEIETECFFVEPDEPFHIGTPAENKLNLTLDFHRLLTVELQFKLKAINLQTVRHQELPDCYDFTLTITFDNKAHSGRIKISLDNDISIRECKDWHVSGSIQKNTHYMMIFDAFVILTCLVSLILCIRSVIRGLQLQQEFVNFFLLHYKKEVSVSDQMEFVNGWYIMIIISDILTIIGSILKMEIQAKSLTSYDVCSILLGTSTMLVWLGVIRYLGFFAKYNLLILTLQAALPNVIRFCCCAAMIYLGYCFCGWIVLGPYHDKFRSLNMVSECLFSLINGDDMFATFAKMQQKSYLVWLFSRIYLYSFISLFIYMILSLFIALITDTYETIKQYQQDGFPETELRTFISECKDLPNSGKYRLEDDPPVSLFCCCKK

[15] = target: T7, Voltage-gated N-type calcium channel alpha-1B subunit/Amyloid beta A4 precursor protein-binding family A member 1; type: protein assay; remark: listed apart in the source
Vero = experiment: cells; type: functional, cell-based; conditions: Chlorocebus sabaeus

Chain of Glucose-6-phosphate 1-dehydrogenase (P11413 whole entry): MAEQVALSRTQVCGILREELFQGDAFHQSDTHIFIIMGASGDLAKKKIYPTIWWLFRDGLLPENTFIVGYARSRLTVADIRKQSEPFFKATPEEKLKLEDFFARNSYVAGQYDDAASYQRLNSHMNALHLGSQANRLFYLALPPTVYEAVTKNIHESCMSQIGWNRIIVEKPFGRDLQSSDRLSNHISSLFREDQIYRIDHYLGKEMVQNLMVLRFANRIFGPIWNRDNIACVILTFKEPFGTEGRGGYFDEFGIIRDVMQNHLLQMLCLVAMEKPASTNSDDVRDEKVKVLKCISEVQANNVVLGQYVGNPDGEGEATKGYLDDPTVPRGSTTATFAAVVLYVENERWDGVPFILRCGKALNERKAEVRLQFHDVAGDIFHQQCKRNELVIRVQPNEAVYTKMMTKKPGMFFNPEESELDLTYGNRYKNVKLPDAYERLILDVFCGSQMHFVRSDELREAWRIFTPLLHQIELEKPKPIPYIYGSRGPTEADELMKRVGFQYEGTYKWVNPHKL
T7 sequence (Q00975 whole entry): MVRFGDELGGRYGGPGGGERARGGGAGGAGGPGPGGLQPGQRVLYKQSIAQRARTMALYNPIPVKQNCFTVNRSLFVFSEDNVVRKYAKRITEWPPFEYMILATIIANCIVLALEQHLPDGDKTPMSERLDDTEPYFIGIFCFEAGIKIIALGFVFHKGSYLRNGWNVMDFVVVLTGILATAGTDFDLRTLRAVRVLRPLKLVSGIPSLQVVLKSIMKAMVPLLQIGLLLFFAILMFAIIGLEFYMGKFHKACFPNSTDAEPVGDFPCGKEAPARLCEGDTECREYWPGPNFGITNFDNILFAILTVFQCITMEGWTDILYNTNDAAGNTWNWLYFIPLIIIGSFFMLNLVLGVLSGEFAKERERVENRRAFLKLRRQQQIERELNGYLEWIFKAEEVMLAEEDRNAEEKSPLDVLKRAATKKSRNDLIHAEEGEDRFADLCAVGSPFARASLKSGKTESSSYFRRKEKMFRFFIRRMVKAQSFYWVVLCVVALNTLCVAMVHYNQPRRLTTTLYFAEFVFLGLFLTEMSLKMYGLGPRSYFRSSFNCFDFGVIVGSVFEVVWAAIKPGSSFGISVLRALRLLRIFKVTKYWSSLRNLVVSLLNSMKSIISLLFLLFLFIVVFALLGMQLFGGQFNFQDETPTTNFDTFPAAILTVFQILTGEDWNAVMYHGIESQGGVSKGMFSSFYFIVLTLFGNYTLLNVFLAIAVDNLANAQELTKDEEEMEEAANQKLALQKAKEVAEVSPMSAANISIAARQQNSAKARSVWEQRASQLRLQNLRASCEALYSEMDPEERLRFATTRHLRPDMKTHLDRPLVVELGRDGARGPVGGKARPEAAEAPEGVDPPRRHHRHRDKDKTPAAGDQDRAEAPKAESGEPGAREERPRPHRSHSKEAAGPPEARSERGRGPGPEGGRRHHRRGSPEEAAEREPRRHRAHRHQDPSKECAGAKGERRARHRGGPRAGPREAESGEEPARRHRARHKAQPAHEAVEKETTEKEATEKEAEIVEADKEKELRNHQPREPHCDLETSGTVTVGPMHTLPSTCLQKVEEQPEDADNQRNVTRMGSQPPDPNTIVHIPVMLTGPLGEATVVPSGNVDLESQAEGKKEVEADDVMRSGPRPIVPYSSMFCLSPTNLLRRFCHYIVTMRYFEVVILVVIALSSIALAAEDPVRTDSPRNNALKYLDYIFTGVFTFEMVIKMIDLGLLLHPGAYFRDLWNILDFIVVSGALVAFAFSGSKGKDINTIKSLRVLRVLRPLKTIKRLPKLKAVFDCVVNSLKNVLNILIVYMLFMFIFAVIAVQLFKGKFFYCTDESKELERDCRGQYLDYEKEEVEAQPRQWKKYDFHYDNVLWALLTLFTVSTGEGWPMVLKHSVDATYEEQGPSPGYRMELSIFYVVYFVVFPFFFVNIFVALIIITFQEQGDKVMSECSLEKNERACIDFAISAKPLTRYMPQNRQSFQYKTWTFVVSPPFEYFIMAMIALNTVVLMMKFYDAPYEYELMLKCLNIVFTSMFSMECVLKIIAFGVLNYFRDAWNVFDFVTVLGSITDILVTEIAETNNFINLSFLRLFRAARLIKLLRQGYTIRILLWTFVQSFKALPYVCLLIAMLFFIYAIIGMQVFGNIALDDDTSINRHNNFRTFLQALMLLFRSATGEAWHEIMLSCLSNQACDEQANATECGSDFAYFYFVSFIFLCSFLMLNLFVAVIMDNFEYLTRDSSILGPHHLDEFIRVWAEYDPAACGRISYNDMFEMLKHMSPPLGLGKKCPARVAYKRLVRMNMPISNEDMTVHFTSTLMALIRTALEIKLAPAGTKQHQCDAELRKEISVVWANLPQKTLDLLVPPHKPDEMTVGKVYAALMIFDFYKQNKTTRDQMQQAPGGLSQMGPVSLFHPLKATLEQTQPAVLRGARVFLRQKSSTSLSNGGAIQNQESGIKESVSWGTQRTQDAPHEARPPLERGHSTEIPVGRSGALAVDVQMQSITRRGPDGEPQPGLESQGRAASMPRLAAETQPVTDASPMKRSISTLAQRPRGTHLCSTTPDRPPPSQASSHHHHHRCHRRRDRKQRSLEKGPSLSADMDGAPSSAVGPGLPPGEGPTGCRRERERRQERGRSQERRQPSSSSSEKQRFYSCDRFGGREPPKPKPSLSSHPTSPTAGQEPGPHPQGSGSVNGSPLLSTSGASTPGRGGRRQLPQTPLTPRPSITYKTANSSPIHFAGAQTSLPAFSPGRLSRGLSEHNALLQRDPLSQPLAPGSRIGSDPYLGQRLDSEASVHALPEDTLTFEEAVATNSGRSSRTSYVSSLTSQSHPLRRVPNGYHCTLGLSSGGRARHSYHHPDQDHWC
T7 sequence (Q02410 whole entry): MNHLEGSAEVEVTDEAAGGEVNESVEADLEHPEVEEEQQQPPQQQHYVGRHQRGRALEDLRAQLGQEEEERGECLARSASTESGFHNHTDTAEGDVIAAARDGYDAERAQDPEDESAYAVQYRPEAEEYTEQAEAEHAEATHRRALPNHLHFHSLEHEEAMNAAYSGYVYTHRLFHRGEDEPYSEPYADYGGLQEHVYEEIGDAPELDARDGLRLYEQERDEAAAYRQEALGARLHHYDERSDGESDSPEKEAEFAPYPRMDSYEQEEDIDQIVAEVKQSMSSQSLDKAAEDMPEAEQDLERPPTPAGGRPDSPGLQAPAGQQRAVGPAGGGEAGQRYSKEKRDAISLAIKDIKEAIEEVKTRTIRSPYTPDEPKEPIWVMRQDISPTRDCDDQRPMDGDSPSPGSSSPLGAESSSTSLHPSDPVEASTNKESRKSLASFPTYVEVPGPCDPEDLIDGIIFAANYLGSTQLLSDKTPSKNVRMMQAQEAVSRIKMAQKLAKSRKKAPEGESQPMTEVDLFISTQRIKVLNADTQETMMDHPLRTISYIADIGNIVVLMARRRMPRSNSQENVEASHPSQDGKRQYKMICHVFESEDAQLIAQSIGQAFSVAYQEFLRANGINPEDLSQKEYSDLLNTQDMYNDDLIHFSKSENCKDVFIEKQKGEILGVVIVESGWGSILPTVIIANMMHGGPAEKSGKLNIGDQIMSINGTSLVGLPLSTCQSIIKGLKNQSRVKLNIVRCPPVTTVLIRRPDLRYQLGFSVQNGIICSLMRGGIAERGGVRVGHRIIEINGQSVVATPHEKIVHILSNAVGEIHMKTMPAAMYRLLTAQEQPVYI
Chain of Large T antigen (P03070 whole entry): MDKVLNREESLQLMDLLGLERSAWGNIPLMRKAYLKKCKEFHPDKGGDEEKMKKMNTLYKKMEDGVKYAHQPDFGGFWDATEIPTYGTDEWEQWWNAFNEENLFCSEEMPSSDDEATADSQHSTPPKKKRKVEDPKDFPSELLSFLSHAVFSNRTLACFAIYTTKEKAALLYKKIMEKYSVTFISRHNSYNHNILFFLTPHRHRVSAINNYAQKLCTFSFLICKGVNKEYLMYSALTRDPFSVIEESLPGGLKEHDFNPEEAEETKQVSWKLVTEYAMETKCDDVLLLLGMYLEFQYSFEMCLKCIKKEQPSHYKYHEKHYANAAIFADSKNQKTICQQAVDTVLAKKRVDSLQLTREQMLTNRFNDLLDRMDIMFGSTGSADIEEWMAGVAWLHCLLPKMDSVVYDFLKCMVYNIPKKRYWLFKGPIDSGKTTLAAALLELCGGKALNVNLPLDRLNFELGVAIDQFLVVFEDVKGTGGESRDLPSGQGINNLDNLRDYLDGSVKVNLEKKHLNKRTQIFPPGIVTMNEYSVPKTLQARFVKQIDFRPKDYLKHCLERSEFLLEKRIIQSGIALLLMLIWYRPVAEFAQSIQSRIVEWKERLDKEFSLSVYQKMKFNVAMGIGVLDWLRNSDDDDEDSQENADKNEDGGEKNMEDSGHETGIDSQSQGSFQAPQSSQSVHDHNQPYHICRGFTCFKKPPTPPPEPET
Chain of DNA dC->dU-editing enzyme APOBEC-3A (P31941 whole entry): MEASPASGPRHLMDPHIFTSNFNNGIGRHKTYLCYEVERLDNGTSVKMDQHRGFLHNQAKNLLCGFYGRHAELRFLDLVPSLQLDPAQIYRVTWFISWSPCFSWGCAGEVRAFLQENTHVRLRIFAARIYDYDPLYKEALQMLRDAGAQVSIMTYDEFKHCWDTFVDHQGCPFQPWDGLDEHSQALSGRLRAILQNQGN
Chain of DNA dC->dU-editing enzyme APOBEC-3G (Q9HC16 whole entry): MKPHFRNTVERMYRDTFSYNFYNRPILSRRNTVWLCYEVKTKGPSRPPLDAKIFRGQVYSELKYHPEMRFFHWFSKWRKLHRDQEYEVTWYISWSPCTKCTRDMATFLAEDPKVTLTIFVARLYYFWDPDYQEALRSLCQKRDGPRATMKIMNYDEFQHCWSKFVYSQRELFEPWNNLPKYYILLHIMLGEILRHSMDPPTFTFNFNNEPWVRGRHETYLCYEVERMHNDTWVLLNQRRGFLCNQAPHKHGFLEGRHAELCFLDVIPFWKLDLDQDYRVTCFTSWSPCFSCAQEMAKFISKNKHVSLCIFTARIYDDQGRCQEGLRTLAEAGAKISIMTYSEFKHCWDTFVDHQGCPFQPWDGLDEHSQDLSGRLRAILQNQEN

## O=S(=O)(Nc1cc(Sc2cccc3cccnc23)c(O)c2ccccc12)c1ccc(F)cc1
[1]
  EC50: > 300 µM (not active)
[2]
  IC50: > 80 µM (inactive)
INS1
  AC50: 1.21 µM (active)
[3]
  EC50: 40.1 µM (active)

## CN1C(=O)N(C)C(=O)C2(Sc3ccccc3C2=O)C1=O
[4]
  AC50: 11.2 µM (active)

## Cc1cccc(N2C(=O)NC(=O)/C(=C/c3ccc([N+](=O)[O-])o3)C2=O)c1
[4]
  AC50: 5.37 µM (active)
[5]
  IC50: 149 µM (active)

## Cc1c(N=C2C=C(Br)C(=O)C(Br)=C2)c(=O)n(-c2ccccc2)n1C
[2]
  IC50: 58.4 µM (inactive)
Large T antigen
  IC50: 27 µM (active)
[6]
  IC50: 52.2 µM (active)
[7]
  IC50: > 50 µM (not active)
Genome polyprotein
  IC50: 82.5 µM (active)

## CCCCCn1/c(=N/C(=O)c2ccco2)c(C(=O)OCC)cc2c(=O)n3ccccc3nc21
HEK293 [8]
  EC50: > 59.6 µM (inactive)
HEK293 [9]
  EC50: > 59.6 µM (inactive)

## N#Cc1c(N)n(C2CCCCC2)c2nc3ccccc3nc12
HEK293 [8]
  EC50: > 59.6 µM (inactive)
HEK293 [9]
  EC50: > 59.6 µM (inactive)

## Cc1cc(C)c2c(=O)n(CC(=O)Nc3cccc(Cl)c3C)sc2n1
[10]
  IC50: 17.8 µM (active)
[11]
  IC50: > 100 µM (inactive)
[2]
  IC50: 46.5 µM (inactive)
[12]
  EC50: 1.65 µM (active)
Ion channel NompC
  EC50: > 29.9 µM (inactive)
[13]
  EC50: 7.73 µM (active)
[14]
  IC50: 6.83 µM (active)
Large T antigen
  IC50: 9.03 µM (active)
Mucolipin-3
  EC50: > 29.9 µM (not active)
[15]
  IC50: > 50 µM (inactive)

## O=c1oc(C2(O)CCCCC2)cc2ccc(-c3ccc4[nH]ccc4c3)cc12
Vero
  IC50: 1.11 µM (active)
